In PubChem BioAssay (NCI):
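Test compounds were applied to cells in 96-well plates for 48 hours at 5 doses. GI50 is the concentration that inhibits growth by half. TGI: total growth inhibition.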

Tests used:
Test in all cases: growth of human tumour cells (NCI), 48 h
SW-620 colon = tested on: SW-620 colon
NCI-H23 lung = tested on: NCI-H23 lung
HCT-15 colon = tested on: HCT-15 colon
HOP-92 NSCLC = tested on: HOP-92 NSCLC
SF-268 CNS = tested on: SF-268 CNS
CCRF-CEM leukemia = tested on: CCRF-CEM leukemia
HOP-62 NSCLC = tested on: HOP-62 NSCLC
OVCAR-8 ovarian = tested on: OVCAR-8 ovarian
U251 CNS = tested on: U251 CNS
HCC-2998 colon = tested on: HCC-2998 colon
HT29 colon = tested on: HT29 colon
UACC-62 melanoma = tested on: UACC-62 melanoma
SK-OV-3 ovarian = tested on: SK-OV-3 ovarian
MCF7 breast = tested on: MCF7 breast
786-0 renal = tested on: 786-0 renal
SR leukemia = tested on: SR leukemia
DU-145 prostate = tested on: DU-145 prostate
RPMI-8226 leukemia = tested on: RPMI-8226 leukemia
UACC-257 melanoma = tested on: UACC-257 melanoma
SK-MEL-5 melanoma = tested on: SK-MEL-5 melanoma
KM12 colon = tested on: KM12 colon
NCI-H226 lung = tested on: NCI-H226 lung
COLO 205 colon = tested on: COLO 205 colon
MDA-MB-435 = tested on: MDA-MB-435
NCI-H522 lung = tested on: NCI-H522 lung
HCT-116 colon = tested on: HCT-116 colon
LOX IMVI melanoma = tested on: LOX IMVI melanoma
SF-295 CNS = tested on: SF-295 CNS
HL-60(TB) leukemia = tested on: HL-60(TB) leukemia
T-47D breast = tested on: T-47D breast
CAKI-1 renal = tested on: CAKI-1 renal
NCI/ADR-RES ovarian = tested on: NCI/ADR-RES ovarian
MDA-MB-231 breast = tested on: MDA-MB-231 breast
OVCAR-3 ovarian = tested on: OVCAR-3 ovarian
SNB-75 CNS = tested on: SNB-75 CNS
NCI-H460 lung = tested on: NCI-H460 lung
EKVX NSCLC = tested on: EKVX NSCLC
TK-10 renal = tested on: TK-10 renal
ACHN renal = tested on: ACHN renal
K-562 leukemia = tested on: K-562 leukemia
BT-549 breast = tested on: BT-549 breast
MALME-3M melanoma = tested on: MALME-3M melanoma
PC-3 prostate = tested on: PC-3 prostate
UO-31 renal = tested on: UO-31 renal
HS 578T breast = tested on: HS 578T breast
OVCAR-5 ovarian = tested on: OVCAR-5 ovarian
A549 NSCLC = tested on: A549 NSCLC
OVCAR-4 ovarian = tested on: OVCAR-4 ovarian
SK-MEL-2 melanoma = tested on: SK-MEL-2 melanoma
SNB-19 CNS = tested on: SNB-19 CNS
MDA-MB-468 breast = tested on: MDA-MB-468 breast
SF-539 CNS = tested on: SF-539 CNS
MOLT-4 leukemia = tested on: MOLT-4 leukemia
SK-MEL-28 melanoma = tested on: SK-MEL-28 melanoma
RXF 393 renal = tested on: RXF 393 renal
A498 renal = tested on: A498 renal
IGROV1 ovarian = tested on: IGROV1 ovarian
SN12C renal = tested on: SN12C renal
M14 melanoma = tested on: M14 melanoma

Structure (SMILES): COc1sc(/C=N/NC(=O)c2[nH]c3ccc(Br)cc3c2-c2ccccc2)cc1Cl
- GI50 (SW-620 colon): 2.88 µM
- TGI (SW-620 colon): > 100 µM
- GI50 (NCI-H23 lung): 3.72 µM
- TGI (NCI-H23 lung): > 100 µM
- GI50 (HCT-15 colon): 2.96 µM
- TGI (HCT-15 colon): > 100 µM
- GI50 (HOP-92 NSCLC): 9.72 µM
- TGI (HOP-92 NSCLC): > 100 µM
- GI50 (SF-268 CNS): 2.67 µM
- TGI (SF-268 CNS): > 100 µM
- GI50 (CCRF-CEM leukemia): 3.09 µM
- TGI (CCRF-CEM leukemia): > 100 µM
- GI50 (HOP-62 NSCLC): 1 µM
- TGI (HOP-62 NSCLC): 13.1 µM
- GI50 (OVCAR-8 ovarian): 0.69 µM
- TGI (OVCAR-8 ovarian): 11.5 µM
- GI50 (U251 CNS): 3.39 µM
- TGI (U251 CNS): 86.6 µM
- GI50 (HCC-2998 colon): 3.74 µM
- TGI (HCC-2998 colon): > 100 µM
- GI50 (HT29 colon): 1.07 µM
- TGI (HT29 colon): 7.46 µM
- GI50 (UACC-62 melanoma): 0.696 µM
- TGI (UACC-62 melanoma): > 100 µM
- GI50 (SK-OV-3 ovarian): 0.741 µM
- TGI (SK-OV-3 ovarian): 22.8 µM
- GI50 (MCF7 breast): 0.447 µM
- TGI (MCF7 breast): > 100 µM
- GI50 (786-0 renal): 2.78 µM
- TGI (786-0 renal): 41.9 µM
- GI50 (SR leukemia): 1 µM
- TGI (SR leukemia): > 100 µM
- GI50 (DU-145 prostate): 3.23 µM
- TGI (DU-145 prostate): 32.5 µM
- GI50 (RPMI-8226 leukemia): 1.96 µM
- TGI (RPMI-8226 leukemia): > 100 µM
- GI50 (UACC-257 melanoma): 5.78 µM
- TGI (UACC-257 melanoma): > 100 µM
- GI50 (SK-MEL-5 melanoma): 1.73 µM
- TGI (SK-MEL-5 melanoma): 4.36 µM
- GI50 (KM12 colon): 2.79 µM
- TGI (KM12 colon): > 100 µM
- GI50 (NCI-H226 lung): 2.12 µM
- TGI (NCI-H226 lung): 8.3 µM
- GI50 (COLO 205 colon): 0.294 µM
- TGI (COLO 205 colon): 0.728 µM
- GI50 (MDA-MB-435): 0.346 µM
- TGI (MDA-MB-435): 2.6 µM
- GI50 (NCI-H522 lung): 0.2 µM
- TGI (NCI-H522 lung): 0.566 µM
- GI50 (HCT-116 colon): 1.74 µM
- TGI (HCT-116 colon): 10.1 µM
- GI50 (LOX IMVI melanoma): 1.61 µM
- TGI (LOX IMVI melanoma): 40.7 µM
- GI50 (SF-295 CNS): 1.2 µM
- TGI (SF-295 CNS): 27.2 µM
- GI50 (HL-60(TB) leukemia): 1.52 µM
- TGI (HL-60(TB) leukemia): 5.23 µM
- GI50 (T-47D breast): 6.62 µM
- TGI (T-47D breast): > 100 µM
- GI50 (CAKI-1 renal): 0.798 µM
- TGI (CAKI-1 renal): 94.6 µM
- GI50 (NCI/ADR-RES ovarian): 0.649 µM
- TGI (NCI/ADR-RES ovarian): 4.58 µM
- GI50 (MDA-MB-231 breast): 3.23 µM
- TGI (MDA-MB-231 breast): 43.1 µM
- GI50 (OVCAR-3 ovarian): 0.607 µM
- TGI (OVCAR-3 ovarian): 11.1 µM
- GI50 (SNB-75 CNS): 0.74 µM
- TGI (SNB-75 CNS): 26.9 µM
- GI50 (NCI-H460 lung): 2.79 µM
- TGI (NCI-H460 lung): 10.7 µM
- GI50 (EKVX NSCLC): 4.49 µM
- TGI (EKVX NSCLC): > 100 µM
- GI50 (TK-10 renal): 4.48 µM
- TGI (TK-10 renal): > 100 µM
- GI50 (ACHN renal): 2.38 µM
- TGI (ACHN renal): > 100 µM
- GI50 (K-562 leukemia): 0.502 µM
- TGI (K-562 leukemia): > 100 µM
- GI50 (BT-549 breast): 3.72 µM
- TGI (BT-549 breast): 8.48 µM
- GI50 (MALME-3M melanoma): 3.98 µM
- TGI (MALME-3M melanoma): > 100 µM
- GI50 (PC-3 prostate): 3.06 µM
- TGI (PC-3 prostate): > 100 µM
- GI50 (UO-31 renal): 2.21 µM
- TGI (UO-31 renal): > 100 µM
- GI50 (HS 578T breast): 1.73 µM
- TGI (HS 578T breast): 44.4 µM
- GI50 (OVCAR-5 ovarian): 3.28 µM
- TGI (OVCAR-5 ovarian): 72.9 µM
- GI50 (A549 NSCLC): 2.64 µM
- TGI (A549 NSCLC): > 100 µM
- GI50 (OVCAR-4 ovarian): 6.38 µM
- TGI (OVCAR-4 ovarian): > 100 µM
- GI50 (SK-MEL-2 melanoma): 1.54 µM
- TGI (SK-MEL-2 melanoma): > 100 µM
- GI50 (SNB-19 CNS): 4.22 µM
- TGI (SNB-19 CNS): > 100 µM
- GI50 (MDA-MB-468 breast): 0.895 µM
- TGI (MDA-MB-468 breast): 5.54 µM
- GI50 (SF-539 CNS): 1.23 µM
- TGI (SF-539 CNS): 4.55 µM
- GI50 (MOLT-4 leukemia): 3.3 µM
- TGI (MOLT-4 leukemia): 26.7 µM
- GI50 (SK-MEL-28 melanoma): 3.26 µM
- TGI (SK-MEL-28 melanoma): > 100 µM
- GI50 (RXF 393 renal): 0.935 µM
- TGI (RXF 393 renal): > 100 µM
- GI50 (A498 renal): 11.1 µM
- TGI (A498 renal): 53.7 µM
- GI50 (IGROV1 ovarian): 3.05 µM
- TGI (IGROV1 ovarian): 30.7 µM
- GI50 (SN12C renal): 3.16 µM
- TGI (SN12C renal): > 100 µM
- GI50 (M14 melanoma): 2.12 µM
- TGI (M14 melanoma): > 100 µM
